Measurements: the NIST ThermoML archive (doi:10.1021/acs.jced.8b00854)

Assays:
[1] = xn = mol fraction of the nth substance listed; conditions: 100 kPa, Liquid, Vibrating tube method
[2] = refractive index (Na D-line) (dimensionless); xn = mol fraction of the nth substance listed; conditions: 100 kPa, Liquid, Standard Abbe refractometry

CCCCCCCCOS(=O)(=O)[O-].CCCCn1cc[n+](C)c1 [1-butyl-3-methylimidazolium octyl sulfate] + O
Conditions | mass density, [1] [kg/m3] | refractive index, [2]
293.15 K, x1 = 0.1002 | 1048.11 | 1.4235
293.15 K, x1 = 0.2002 | 1060.01 | 1.4455
293.15 K, x1 = 0.3004 | 1063.92 | 1.4555
293.15 K, x1 = 0.4004 | 1065.86 | 1.461
293.15 K, x1 = 0.501 | 1066.97 | 1.464
293.15 K, x1 = 0.5998 | 1067.84 | 1.467
293.15 K, x1 = 0.6988 | 1068.5 | 1.4685
293.15 K, x1 = 0.8 | 1069.33 | 1.47
293.15 K, x1 = 0.9018 | 1070.47 | 1.4705
303.15 K, x1 = 0.1002 | 1041.72 | 1.422
303.15 K, x1 = 0.2002 | 1052.71 | 1.4435
303.15 K, x1 = 0.3004 | 1057.16 | 1.453
303.15 K, x1 = 0.4004 | 1059.15 | 1.4585
303.15 K, x1 = 0.501 | 1060.3 | 1.462
303.15 K, x1 = 0.5998 | 1061.29 | 1.4645
303.15 K, x1 = 0.6988 | 1061.97 | 1.466
303.15 K, x1 = 0.8 | 1062.8 | 1.4675
303.15 K, x1 = 0.9018 | 1063.98 | 1.4685
313.15 K, x1 = 0.1002 | 1035.13 | 1.4215
313.15 K, x1 = 0.2002 | 1046.53 | 1.4415
313.15 K, x1 = 0.3004 | 1050.37 | 1.4525
313.15 K, x1 = 0.4004 | 1052.42 | 1.457
313.15 K, x1 = 0.501 | 1053.61 | 1.4595
313.15 K, x1 = 0.5998 | 1054.71 | 1.462
313.15 K, x1 = 0.6988 | 1055.42 | 1.4635
313.15 K, x1 = 0.8 | 1056.28 | 1.465
313.15 K, x1 = 0.9018 | 1057.53 | 1.466
323.15 K, x1 = 0.1002 | 1028.37 | 1.421
323.15 K, x1 = 0.2002 | 1039.57 | 1.4405
323.15 K, x1 = 0.3004 | 1043.56 | 1.45
323.15 K, x1 = 0.4004 | 1045.67 | 1.4555
323.15 K, x1 = 0.501 | 1046.92 | 1.457
323.15 K, x1 = 0.5998 | 1048.14 | 1.46
323.15 K, x1 = 0.6988 | 1048.87 | 1.461
323.15 K, x1 = 0.8 | 1049.77 | 1.462
323.15 K, x1 = 0.9018 | 1051.07 | 1.4635
333.15 K, x1 = 0.1002 | 1021.44 | 1.419
333.15 K, x1 = 0.2002 | 1032.54 | 1.44
333.15 K, x1 = 0.3004 | 1036.7 | 1.4495
333.15 K, x1 = 0.4004 | 1038.91 | 1.4535
333.15 K, x1 = 0.501 | 1040.19 | 1.4545
333.15 K, x1 = 0.5998 | 1041.4 | 1.4575
333.15 K, x1 = 0.6988 | 1042.35 | 1.4585
333.15 K, x1 = 0.8 | 1043.27 | 1.46
333.15 K, x1 = 0.9018 | 1044.63 | 1.461
343.15 K, x1 = 0.1002 | 1014.33 | 1.419
343.15 K, x1 = 0.2002 | 1025.58 | 1.4395
343.15 K, x1 = 0.3004 | 1029.67 | 1.4465
343.15 K, x1 = 0.4004 | 1032.07 | 1.452
343.15 K, x1 = 0.501 | 1033.23 | 1.453
343.15 K, x1 = 0.5998 | 1034.54 | 1.4565
343.15 K, x1 = 0.6988 | 1035.66 | 1.457
343.15 K, x1 = 0.8 | 1036.82 | 1.458
343.15 K, x1 = 0.9018 | 1038.23 | 1.459

CCCCn1cc[n+](C)c1.F[B-](F)(F)F [1-butyl-3-methylimidazolium tetrafluoroborate] + O
Conditions | mass density, [1] [kg/m3] | refractive index, [2]
293.15 K, x1 = 0.0994 | 1106.69 | 1.383
293.15 K, x1 = 0.2005 | 1143.19 | 1.397
293.15 K, x1 = 0.3003 | 1161.69 | 1.406
293.15 K, x1 = 0.4003 | 1173.6 | 1.411
293.15 K, x1 = 0.5006 | 1182.13 | 1.414
293.15 K, x1 = 0.6004 | 1188.42 | 1.4165
293.15 K, x1 = 0.7008 | 1193.17 | 1.418
293.15 K, x1 = 0.8006 | 1196.75 | 1.42
293.15 K, x1 = 0.899 | 1199.6 | 1.4215
303.15 K, x1 = 0.0994 | 1100.29 | 1.379
303.15 K, x1 = 0.2005 | 1135.92 | 1.395
303.15 K, x1 = 0.3003 | 1154.24 | 1.403
303.15 K, x1 = 0.4003 | 1166.15 | 1.409
303.15 K, x1 = 0.5006 | 1174.73 | 1.4125
303.15 K, x1 = 0.6004 | 1181.09 | 1.415
303.15 K, x1 = 0.7008 | 1185.92 | 1.4165
303.15 K, x1 = 0.8006 | 1189.58 | 1.418
303.15 K, x1 = 0.899 | 1192.49 | 1.4195
313.15 K, x1 = 0.0994 | 1093.06 | 1.3765
313.15 K, x1 = 0.2005 | 1128.35 | 1.394
313.15 K, x1 = 0.3003 | 1146.77 | 1.4015
313.15 K, x1 = 0.4003 | 1158.78 | 1.4075
313.15 K, x1 = 0.5006 | 1167.43 | 1.41
313.15 K, x1 = 0.6004 | 1173.85 | 1.4125
313.15 K, x1 = 0.7008 | 1178.71 | 1.414
313.15 K, x1 = 0.8006 | 1182.39 | 1.416
313.15 K, x1 = 0.899 | 1185.31 | 1.4175
323.15 K, x1 = 0.0994 | 1085.97 | 1.376
323.15 K, x1 = 0.2005 | 1120.89 | 1.393
323.15 K, x1 = 0.3003 | 1139.33 | 1.4015
323.15 K, x1 = 0.4003 | 1151.42 | 1.4055
323.15 K, x1 = 0.5006 | 1160.15 | 1.4075
323.15 K, x1 = 0.6004 | 1166.65 | 1.4105
323.15 K, x1 = 0.7008 | 1171.59 | 1.4125
323.15 K, x1 = 0.8006 | 1175.31 | 1.414
323.15 K, x1 = 0.899 | 1178.26 | 1.415
333.15 K, x1 = 0.0994 | 1079.15 | 1.3755
333.15 K, x1 = 0.2005 | 1113.47 | 1.39
333.15 K, x1 = 0.3003 | 1131.87 | 1.401
333.15 K, x1 = 0.4003 | 1144.01 | 1.405
333.15 K, x1 = 0.5006 | 1152.8 | 1.4075
333.15 K, x1 = 0.6004 | 1159.37 | 1.4095
333.15 K, x1 = 0.7008 | 1164.36 | 1.411
333.15 K, x1 = 0.8006 | 1168.12 | 1.4125
333.15 K, x1 = 0.899 | 1171.04 | 1.4135
343.15 K, x1 = 0.0994 | 1072.21 | 1.3755
343.15 K, x1 = 0.2005 | 1106.02 | 1.39
343.15 K, x1 = 0.3003 | 1124.41 | 1.401
343.15 K, x1 = 0.4003 | 1136.62 | 1.4045
343.15 K, x1 = 0.5006 | 1145.48 | 1.407
343.15 K, x1 = 0.6004 | 1152.11 | 1.407
343.15 K, x1 = 0.7008 | 1157.17 | 1.4085
343.15 K, x1 = 0.8006 | 1161 | 1.409
343.15 K, x1 = 0.899 | 1164.1 | 1.411

CCCCn1cc[n+](C)c1.O=S(=O)([O-])C(F)(F)F [1-butyl-3-methylimidazolium trifluoromethanesulfonate] + O
Conditions | mass density, [1] [kg/m3] | refractive index, [2]
293.15 K, x1 = 0.1001 | 1176.55 | 1.396
293.15 K, x1 = 0.2003 | 1227.39 | 1.4145
293.15 K, x1 = 0.3007 | 1251.78 | 1.421
293.15 K, x1 = 0.4003 | 1266.32 | 1.4265
293.15 K, x1 = 0.5001 | 1275.87 | 1.4301
293.15 K, x1 = 0.5998 | 1282.43 | 1.432
293.15 K, x1 = 0.6995 | 1287.53 | 1.434
293.15 K, x1 = 0.8017 | 1291.5 | 1.4355
293.15 K, x1 = 0.8993 | 1294.38 | 1.4365
303.15 K, x1 = 0.1001 | 1169.14 | 1.3945
303.15 K, x1 = 0.2003 | 1219.44 | 1.411
303.15 K, x1 = 0.3007 | 1243.64 | 1.4195
303.15 K, x1 = 0.4003 | 1258.57 | 1.4245
303.15 K, x1 = 0.5001 | 1267.92 | 1.428
303.15 K, x1 = 0.5998 | 1274.38 | 1.4305
303.15 K, x1 = 0.6995 | 1279.4 | 1.4315
303.15 K, x1 = 0.8017 | 1283.28 | 1.4335
303.15 K, x1 = 0.8993 | 1286.22 | 1.4345
313.15 K, x1 = 0.1001 | 1161.07 | 1.3925
313.15 K, x1 = 0.2003 | 1210.91 | 1.4095
313.15 K, x1 = 0.3007 | 1235.41 | 1.418
313.15 K, x1 = 0.4003 | 1250.38 | 1.423
313.15 K, x1 = 0.5001 | 1259.88 | 1.426
313.15 K, x1 = 0.5998 | 1266.41 | 1.4285
313.15 K, x1 = 0.6995 | 1271.39 | 1.43
313.15 K, x1 = 0.8017 | 1275.29 | 1.431
313.15 K, x1 = 0.8993 | 1278.29 | 1.4325
323.15 K, x1 = 0.1001 | 1153.14 | 1.3915
323.15 K, x1 = 0.2003 | 1201.99 | 1.409
323.15 K, x1 = 0.3007 | 1226.91 | 1.4175
323.15 K, x1 = 0.4003 | 1241.75 | 1.421
323.15 K, x1 = 0.5001 | 1251.81 | 1.4245
323.15 K, x1 = 0.5998 | 1258.46 | 1.4255
323.15 K, x1 = 0.6995 | 1263.41 | 1.4275
323.15 K, x1 = 0.8017 | 1267.34 | 1.429
323.15 K, x1 = 0.8993 | 1270.34 | 1.4305
333.15 K, x1 = 0.1001 | 1143.31 | 1.3905
333.15 K, x1 = 0.2003 | 1193.54 | 1.408
333.15 K, x1 = 0.3007 | 1218.41 | 1.4155
333.15 K, x1 = 0.4003 | 1233.39 | 1.42
333.15 K, x1 = 0.5001 | 1243.49 | 1.422
333.15 K, x1 = 0.5998 | 1250.25 | 1.424
333.15 K, x1 = 0.6995 | 1255.51 | 1.4255
333.15 K, x1 = 0.8017 | 1259.46 | 1.427
333.15 K, x1 = 0.8993 | 1262.47 | 1.428
343.15 K, x1 = 0.1001 | 1133.11 | 1.389
343.15 K, x1 = 0.2003 | 1184.05 | 1.405
343.15 K, x1 = 0.3007 | 1209.18 | 1.415
343.15 K, x1 = 0.4003 | 1224.41 | 1.4185
343.15 K, x1 = 0.5001 | 1234.79 | 1.4215
343.15 K, x1 = 0.5998 | 1241.97 | 1.423
343.15 K, x1 = 0.6995 | 1247.23 | 1.4235
343.15 K, x1 = 0.8017 | 1251.33 | 1.4255
343.15 K, x1 = 0.8993 | 1254.45 | 1.4265
